Measurements as given in patent US9604989B2, “Imidazopyridazines as Akt kinase inhibitors” (Bayer Intellectual Property GmbH, priority 2011, dated 2017).

Experiments:
[1] = molecular target: His-tagged human recombinant kinase full-length Akt1 (Homo sapiens (Human), UniProt P31749); test: Akt1 kinase assay (Akt1 TR-FRET assay); type: biochemical; settings: 10 μM ATP, 60 min at 22° C., read-out: Akt1 median IC50
Text: Biological Assay 1.0: Akt1 Kinase Assay
Akt1 inhibitory activity of compounds of the present invention was quantified employing the Akt1 TR-FRET assay as described in the following paragraphs.
His-tagged human recombinant kinase full-length Akt1 expressed in insect cells was purchased form Invitrogen (part number PV 3599). As substrate for the kinase reaction the biotinylated peptide biotin-Ahx-[sequence] (C-terminus in amide form) was used which can be purchased e.g. from the company Biosynthan GmbH (Berlin-Buch, Germany).
For the assay 50 nl of a 100 fold concentrated solution of the test compound in DMSO was pipetted into a black low volume 384 well microtiter plate (Greiner Bio-One, Frickenhausen, Germany), 2 μl of a solution of Akt1 in assay buffer [50 mM TRIS/HCl pH 7.5, 5 mM MgCl2, 1 mM dithiothreitol, 0.02% (v/v) Triton X-100 (Sigma)] were added and the mixture was incubated for 15 min at 22° C. to allow pre-binding of the test compounds to the enzyme before the start of the kinase reaction. Then the kinase reaction was started by the addition of 3 μl of a solution of adenosine-tri-phosphate (ATP, 16.7 μM=>final conc. in the 5 μl assay volume is 10 μM) and substrate (1.67 μM=>final conc. in the 5 μl assay volume is 1 μM) in assay buffer and the resulting mixture was incubated for a reaction time of 60 min at 22° C. The concentration of Akt1 in the assay was adjusted depending of the activity of the enzyme lot and was chosen appropriate to have the assay in the linear range, typical enzyme concentrations were in the range of about 0.05 ng/μl (final conc. in the 5 μl assay volume). The reaction was stopped by the addition of 5 μl of a solution of HTRF detection reagents (200 nM streptavidine-XL665 [Cisbio] and 1.5 nM anti-phosho-Serine antibody [Millipore, cat. #35-001] and 0.75 nM LANCE Eu-W 1024 labeled anti-mouse IgG antibody [Perkin Elmer]) in an aqueous EDTA-solution (100 mM EDTA, 0.1% (w/v) bovine serum albumin in 50 mM HEPES/NaOH pH 7.5). The resulting mixture was incubated 1 h at 22° C. to allow the binding of the biotinylated phosphorylated peptide to the streptavidine-XL665 and the antibodies. Subsequently the amount of phosphorylated substrate was evaluated by measurement of the resonance energy transfer from the anti-mouse-IgG-Eu-Chelate to the streptavidine-XL665. Therefore, the fluorescence emissions at 620 nm and 665 nm after excitation at 350 nm was measured in a HTRF reader, e.g. a Rubystar (BMG Labtechnologies, Offenburg, Germany) or a Viewlux (Perkin-Elmer). The ratio of the emissions at 665 nm and at 622 nm was taken as the measure for the amount of phosphorylated substrate.

[2] = molecular target: His-tagged human recombinant kinase full-length Akt2 (Homo sapiens (Human), UniProt P31751); test: Akt2 kinase assay (Akt2 TR-FRET assay); type: biochemical; settings: 10 μM ATP, 60 min at 22° C., read-out: Akt2 median IC50
Chain of His-tagged human recombinant kinase full-length Akt2 (P31751 whole entry): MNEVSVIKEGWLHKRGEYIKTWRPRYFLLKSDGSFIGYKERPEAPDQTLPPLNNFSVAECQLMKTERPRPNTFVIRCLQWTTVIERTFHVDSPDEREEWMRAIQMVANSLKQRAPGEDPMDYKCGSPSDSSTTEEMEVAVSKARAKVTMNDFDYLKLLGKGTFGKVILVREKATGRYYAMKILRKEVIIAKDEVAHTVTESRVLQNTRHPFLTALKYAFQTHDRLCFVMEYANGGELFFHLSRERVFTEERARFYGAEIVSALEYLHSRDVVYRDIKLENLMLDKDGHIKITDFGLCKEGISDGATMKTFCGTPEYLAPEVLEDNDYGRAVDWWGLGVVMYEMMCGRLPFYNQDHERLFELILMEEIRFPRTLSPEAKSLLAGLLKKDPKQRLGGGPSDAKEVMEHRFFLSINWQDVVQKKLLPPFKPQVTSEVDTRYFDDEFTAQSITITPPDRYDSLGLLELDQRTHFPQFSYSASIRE
Text: Akt2 inhibitory activity of compounds of the present invention was quantified employing the Akt2 TR-FRET assay as described in the following paragraphs.
His-tagged human recombinant kinase full-length Akt2 expressed in insect cells and activated by PDK1 was purchased form Invitrogen (part number PV 3975). As substrate for the kinase reaction the biotinylated peptide biotin-Ahx-[sequence] (C-terminus in amide form) was used which can be purchased e.g. from the company Biosynthan GmbH (Berlin-Buch, Germany). For the assay 50 nl of a 100 fold concentrated solution of the test compound in DMSO was pipetted into a black low volume 384 well microtiter plate (Greiner Bio-One, Frickenhausen, Germany), 2 μl of a solution of Akt2 in assay buffer [50 mM TRIS/HCl pH 7.5, 5 mM MgCl2, 1 mM dithiothreitol, 0.02% (v/v) Triton X-100 (Sigma)] were added and the mixture was incubated for 15 min at 22° C. to allow pre-binding of the test compounds to the enzyme before the start of the kinase reaction. Then the kinase reaction was started by the addition of 3 μl of a solution of adenosine-tri-phosphate (ATP, 16.7 μM=>final conc. in the 5 μl assay volume is 10 μM) and substrate (1.67 μM=>final conc. in the 5 μl assay volume is 1 μM) in assay buffer and the resulting mixture was incubated for a reaction time of 60 min at 22° C. The concentration of Akt2 in the assay was adjusted depending of the activity of the enzyme lot and was chosen appropriate to have the assay in the linear range, typical enzyme concentrations were in the range of about 0.2 ng/μl (final conc. in the 5 μl assay volume). The reaction was stopped by the addition of 5 μl of a solution of HTRF detection reagents (200 nM streptavidine-XL665 [Cisbio] and 1.5 nM anti-phosho-Serine antibody [Millipore, cat. #35-001] and 0.75 nM LANCE Eu-W 1024 labeled anti-mouse IgG antibody [Perkin Elmer]) in an aqueous EDTA-solution (100 mM EDTA, 0.1% (w/v) bovine serum albumin in 50 mM HEPES/NaOH pH 7.5). The resulting mixture was incubated 1 h at 22° C. to allow the binding of the biotinylated phosphorylated peptide to the streptavidine-XL665 and the antibodies. Subsequently the amount of phosphorylated substrate was evaluated by measurement of the resonance energy transfer from the anti-mouse-IgG-Eu-Chelate to the streptavidine-XL665. Therefore, the fluorescence emissions at 620 nm and 665 nm after excitation at 350 nm was measured in a TR-FRET reader, e.g. a Rubystar (BMG Labtechnologies, Offenburg, Germany) or a Viewlux (Perkin-Elmer). The ratio of the emissions at 665 nm and at 622 nm was taken as the measure for the amount of phosphorylated substrate.

phospho-AKT at S473 = test: Cellular p-AKT1/2/3-S473 assay in KPL-4 cells; type: cell-based; settings: Homo sapiens, KPL4; KPL-4 breast tumour cell line, compound treatment 2 hours; read-out: pAKT-S473 median IC50
Experimental: (§1) The molecular mechanism of action was investigated in a set of experiments to assess the inhibition of the PI3K-AKT-mTOR pathway in responsive cell lines such as KPL-4 breast tumour cell line (PIK3CA^H1047R, HER2^O/E and hormone independent). The phospho-substrates of PI3K-AKT-mTOR axis were used as the read-outs to reflect pathway inhibition. Cells were seeded at 60-80% confluency per well in 96-well cell culture plates. After overnight incubation at 37° C. 5% CO2, cells were treated with compounds and vehicle at 37° C. for 2 hours. […] All measurements where at least done in duplicates and confirmed by independent repetition.
Alternatively pAKT-S473 was measured using the “Akt Duplex” of the MULTI-SPOT® Assay System (Fa. Meso Scale Discovery, Cat#N41100B-1) following manufacturers instructions. Each assay used 20 μg of protein extract and measured total AKT and p-AKT content simultaneously in one well. All measurements where at least done in duplicates and confirmed by independent repetition. Values for P-AKT are expressed as percentage of P-AKT level compared to total-AKT content of the extracts.

p-4E-BP1 at T70 = test: Cellular p-4E-BP1-T70 assay in KPL-4 cells; type: cell-based; settings: Homo sapiens, KPL4; KPL-4 breast tumour cell line, compound treatment 2 hours; read-out: P4EBP1-T70 median IC50
Experimental: as §1

[3] = system: KPL-4 breast cancer cell line; test: Tumor cell proliferation assay (CellTiter-Glo), KPL-4; type: cell-based; settings: Homo sapiens, KPL4, 72 h drug exposure, read-out: KLP-4 median IC50
[4] = system: MCF-7 breast tumour cell line; test: Tumor cell proliferation assay (CellTiter-Glo), MCF-7; type: cell-based; settings: Homo sapiens, MCF7, 72 h drug exposure, read-out: MCF-7 median IC50
Experimental: Biological Assay 4.0: Tumor Cell Proliferation Assays
Compounds were tested in a cell-based assay that measures the capacity of the compounds to inhibit tumour cell proliferation following a 72 h drug exposure. Cell viability is determined using CellTiter-Glow® (CTG, Promega, cat#G7571/2/3). The CellTiter-Glo® Luminescent Cell Viability Assay is a homogeneous method to determine the number of viable cells in culture.
Detection is based on using the luciferase reaction to measure the amount of ATP from viable cells. The amount of ATP in cells correlates with cell viability. Within minutes after a loss of membrane integrity, cells lose the ability to synthesize ATP, and endogenous ATPases destroy any remaining ATP; thus the levels of ATP fall precipitously.
For each cell line assayed, cells were plated onto a separate plate for determination of fluorescence at t=0 hour and t=72 hour time points. Following overnight incubation at 37° C., chemiluminescence values for the t=0 samples were determined after adding 10 μl medium and 100 μl CTG solution according to manufacture protocol. Plates for the t=72 hour time points were treated with compounds diluted into growth medium at ten times final concentration added in 10 μL to the cell culture plate. Cells were then incubated for 72 hours at 37° C. Chemiluminescence values for the t=72 hour samples were determined. […] Experiments were controlled using a reference compound as standard.

Chain of His-tagged human recombinant kinase full-length Akt1 (P31749 whole entry): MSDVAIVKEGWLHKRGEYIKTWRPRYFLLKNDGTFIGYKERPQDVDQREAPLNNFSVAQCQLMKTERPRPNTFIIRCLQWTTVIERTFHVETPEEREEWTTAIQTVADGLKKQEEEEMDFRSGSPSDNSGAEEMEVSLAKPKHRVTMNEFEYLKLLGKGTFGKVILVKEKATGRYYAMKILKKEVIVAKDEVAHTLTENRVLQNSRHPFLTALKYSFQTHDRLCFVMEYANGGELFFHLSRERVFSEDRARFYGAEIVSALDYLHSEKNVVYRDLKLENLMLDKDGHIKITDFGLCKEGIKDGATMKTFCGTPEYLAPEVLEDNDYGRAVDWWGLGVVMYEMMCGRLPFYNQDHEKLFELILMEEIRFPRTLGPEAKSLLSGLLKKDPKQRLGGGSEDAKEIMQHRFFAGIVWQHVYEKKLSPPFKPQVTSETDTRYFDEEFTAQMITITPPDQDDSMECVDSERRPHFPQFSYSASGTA

| SMILES | IC50 [1] | IC50 [2] | IC50 (phospho-AKT at S473) | IC50 (p-4E-BP1 at T70) | IC50 [3] | IC50 [4] |
| --- | --- | --- | --- | --- | --- | --- |
| Cc1c(Cl)nn2c(-c3ccccc3)c(-c3ccc(C4(N)CCC4)cc3)nc2c1C [Example 50, 1-[4-(6-Chloro-7,8-dimethyl-3-phenylimidazo[1,2-b]pyridazin-2-yl)phenyl]-cyclobutanamine] | 44 nM | 27 nM | 450 nM | 2000 nM | 1700 nM | 1800 nM |
| CCCCOc1cc(OCC)nn2c(-c3ccccc3)c(-c3ccc(C4(N)CCC4)cc3)nc12 [Example 77, 1-[4-(8-Butoxy-6-ethoxy-3-phenylimidazo[1,2-b]pyridazin-2-yl)phenyl]-cyclobutanamine] | 10 nM | 61 nM | 460 nM | 1400 nM | 1900 nM | 1700 nM |
| COC(=O)c1ccc2nc(-c3ccc(C4(N)CCC4)cc3)c(-c3ccccc3)n2n1 [Example 39, Methyl 2-[4-(1-aminocyclobutyl)phenyl]-3-phenylimidazo[1,2-b]pyridazine-6-carboxylate] | 38 nM | 160 nM | 280 nM | 7500 nM | > 10000 nM | 6100 nM |
| NC1(c2ccc(-c3nc4ccc(O)nn4c3-c3ccccc3)cc2)CCC1 [Example 79, 2-[4-(1-Aminocyclobutyl)phenyl]-3-phenylimidazo[1,2-b]pyridazin-6-ol] | 2000 nM | 2800 nM | 210 nM | 910 nM | 10000 nM | 10000 nM |
| CCc1cc(CC)c2nc(-c3ccc(C4(N)CCC4)cc3)c(-c3ccccc3)n2n1 [Example 16, 1-[4-(6,8-Diethyl-3-phenylimidazo[1,2-b]pyridazin-2-yl)phenyl]cyclobutanamine] | 160 nM | 160 nM | 520 nM | 2500 nM | 2000 nM | 1800 nM |
| CCc1cc(-c2cc[nH]n2)c2nc(-c3ccc(C4(N)CCC4)cc3)c(-c3ccccc3)n2n1 [Example 21, 1-{4-[6-Ethyl-3-phenyl-8-(1H-pyrazol-3-yl)imidazo [1,2-b]pyridazin-2-yl]phenyl}cyclobutanamine] | 73 nM | 130 nM | 420 nM | 1700 nM | 2000 nM | 1800 nM |
| COC(=O)COc1ccc2nc(-c3ccc(C4(N)CCC4)cc3)c(-c3ccccc3)n2n1 [Example 80, Methyl ({2-[4-(1-aminocyclobutyl)phenyl]-3-phenylimidazo[1,2-b]pyridazin-6-yl}oxy)acetate] | 96 nM | 610 nM | 190 nM | 9800 nM | 10000 nM | 10000 nM |
| NC1(c2ccc(-c3nc4ccc(C(=O)O)nn4c3-c3ccccc3)cc2)CCC1 [Example 8, 2-[4-(1-Aminocyclobutyl)phenyl]-3-phenylimidazo[1,2-b]pyridazine-6-carboxylic acid] | 450 nM | 400 nM | > 10000 nM | > 10000 nM | > 10000 nM | > 10000 nM |
| C=Cc1cc(-c2cc[nH]n2)c2nc(-c3ccc(C4(N)CCC4)cc3)c(-c3ccccc3)n2n1 [Example 20, 1-{4-[3-Phenyl-8-(1H-pyrazol-3-yl)-6-vinylimidazo [1,2-b]pyridazin-2-yl]phenyl}cyclobutanamine] | 120 nM | 170 nM | 520 nM | 1500 nM | 2600 nM | 1800 nM |
| NC1(c2ccc(-c3nc4c(OCc5ccccc5)cc(Cl)nn4c3-c3ccccc3)cc2)CCC1 [Example 29, 1-{4-[8-(Benzyloxy)-6-chloro-3-phenylimidazo[1,2-b]pyridazin-2-yl]phenyl}cyclobutanamine] | 56 nM | 78 nM | 210 nM | 1300 nM | 2000 nM | 1700 nM |
| NC1(c2ccc(-c3nc4c(-c5ccc(F)cc5)cc(-c5ccc(F)cc5)nn4c3-c3ccccc3)cc2)CCC1 [Example 42, 1-{4-[6,8-Bis(4-fluorophenyl)-3-phenylimidazo[1,2-b]pyridazin-2-yl]phenyl}cyclobutanamine] | 20000 nM | 20000 nM | 120 nM | 2600 nM | 2800 nM | 4200 nM |
| CCOC(=O)c1ccc2nc(-c3ccc(C4(N)CCC4)cc3)c(-c3ccccc3)n2n1 [Example 4, Ethyl 2-[4-(1-aminocyclobutyl)phenyl]-3-phenylimidazo[1,2-b]pyridazine-6-carboxylate] | 85 nM | 190 nM | 610 nM | 2400 nM | 2400 nM | 1800 nM |
| CCc1ccc2nc(-c3ccc(C4(N)CCC4)cc3)c(-c3ccccc3)n2n1 [Example 2, 1-[4-(6-Ethyl-3-phenylimidazo[1,2-b]pyridazin-2-yl)phenyl]cyclobutanamine] | 65 nM | 97 nM | 310 nM | 2100 nM | 1700 nM | 1700 nM |

Continued by falling IC50 [1], values first:

| IC50 [1] | IC50 [2] | IC50 (phospho-AKT at S473) | IC50 (p-4E-BP1 at T70) | IC50 [3] | IC50 [4] | SMILES |
| --- | --- | --- | --- | --- | --- | --- |
| 26 nM | 15 nM | 2.1 nM | 9.9 nM | 140 nM | 110 nM | Cc1c(C(N)=O)nn2c(-c3ccccc3)c(-c3ccc(C4(N)CCC4)cc3)nc2c1C [Example 52, 2-[4-(1-Aminocyclobutyl)phenyl]-7,8-dimethyl-3-phenylimidazo[1,2-b]-pyridazine-6-carboxamide] |
| 25 nM | 29 nM | 250 nM | 1800 nM | 9400 nM | 2100 nM | CCOc1cc(C(=O)OC)nn2c(-c3ccccc3)c(-c3ccc(C4(N)CCC4)cc3)nc12 [Example 57, Methyl 2-[4-(1-aminocyclobutyl)phenyl]-8-ethoxy-3-phenylimidazo[1,2-b]pyridazine-6-carboxylate] |
| 15 nM | 29 nM | 36 nM | 480 nM | 1800 nM | 1800 nM | NC1(c2ccc(-c3nc4c(-c5cc[nH]n5)ccnn4c3-c3ccccc3)cc2)CCC1 [Example 27, 1-{4-[3-Phenyl-8-(1H-pyrazol-3-yl)imidazo[1,2-b]pyridazin-2-yl]phenyl}cyclobutanamine] |
| 15 nM | 42 nM | 390 nM | 5100 nM | 2000 nM | 1800 nM | NC1(c2ccc(-c3nc4c(-c5cc[nH]n5)cc(Cl)nn4c3-c3ccccc3)cc2)CCC1 [Example 19, 1-{4-[6-Chloro-3-phenyl-8-(1H-pyrazol-3-yl)imidazo[1,2-b]pyridazin-2-yl]phenyl} cyclobutanamine] |
| 12 nM | 35 nM | 690 nM | 1600 nM | 740 nM | 1800 nM | CSc1nn2c(-c3ccccc3)c(-c3ccc(C4(N)CCC4)cc3)nc2c(C)c1C [Example 54, 1-{4-[7,8-Dimethyl-6-(methylsulfanyl)-3-phenylimidazo[1,2-b]pyridazin-2-yl]-phenyl}cyclobutanamine] |
| 11 nM | 23 nM | 120 nM | 940 nM | 1700 nM | 940 nM | CCOc1cc(OCC)c2nc(-c3ccc(C4(N)CCC4)cc3)c(-c3ccccc3)n2n1 [Example 76, 1-[4-(6,8-Diethoxy-3-phenylimidazo[1,2-b]pyridazin-2-yl)phenyl]cyclobutanamine] |
| 9.2 nM | 2.4 nM | 200 nM | 1000 nM | 1700 nM | 870 nM | COc1nn2c(-c3ccccc3)c(-c3ccc(C4(N)CCC4)cc3)nc2c(C)c1C [Example 53, 1-[4-(6-Methoxy-7,8-dimethyl-3-phenylimidazo[1,2-b]pyridazin-2-yl)phenyl]-cyclobutanamine] |
| 6.9 nM | 9.7 nM | 27 nM | 1300 nM | 250 nM | 410 nM | COc1cc(Br)nn2c(-c3ccccc3)c(-c3ccc(C4(N)CCC4)cc3)nc12 [Example 7, 1-[4-(6-Bromo-8-methyloxy-3-phenylimidazo[1,2-b]pyridazin-2-yl)phenyl]-cyclobutanamine] |
| 4.3 nM | 43 nM | 230 nM | 1700 nM | 1800 nM | 2000 nM | COc1cc(-c2cc[nH]n2)c2nc(-c3ccc(C4(N)CCC4)cc3)c(-c3ccccc3)n2n1 [Example 73, 1-{4-[6-Methoxy-3-phenyl-8-(1H-pyrazol-3-yl)imidazo[1,2-b]pyridazin-2-yl]-phenyl}cyclobutanamine] |
| 4.2 nM | 80 nM | 210 nM | 1300 nM | 1100 nM | 1200 nM | COc1ccc2nc(-c3ccc(C4(N)CCC4)cc3)c(-c3ccccc3)n2n1 [Example 6, 1-[4-(6-Methyloxy-3-phenylimidazo[1,2-b]pyridazin-2-yl)phenyl]cyclobutanamine] |
| 2.6 nM | 4.1 nM | 2.4 nM | 28 nM | 49 nM | 39 nM | COc1cc(C(N)=O)nn2c(-c3ccccc3)c(-c3ccc(C4(N)CCC4)cc3)nc12 [Example 10, 2-[4-(1-Aminocyclobutyl)phenyl]-8-methoxy-3-phenylimidazo[1,2-b]-pyridazine-6-carboxamide] |
